Where “and” joins values, the source holds several entries; their conditions need not be identical. Equal entries are not always repeated. Ends that are not written are not given here.
Assays:
[1] = test system: CD8+ T lymphocytes of PBMC; assay: In vitro stimulation of human PBMC with peptide and rIL-2, then tetramer reagent labeling and flow analysis
[2] = test system: splenocytes (CD8+ T cells); assay type: cell-based, HHD-II transgenic mice
[3] = test system: Jurkat A2.1 cells pulsed with peptide
HLA-A*02 = molecular target: T1, HLA-A*02 (Homo sapiens, UniProt P04439, D140Y/D185E/D98H/E176V/E277Q/G131W/G231S/I119V/I121R/I166T/I218V/L300P/L318F/N151K/N90K/P208A/P217A/Q86G/Q94H/R138H/R169H/T345S); assay: T2 stabilization/HLA-A*02 binding assay (flow cytometry of surface HLA-A2 on peptide-pulsed T2 cells); conditions: peptide-pulsed TAP-deficient T2 cells, FIG. 1
T1 construct: Levels of surface HLA-A2 were measured by staining peptide-pulsed T2 cells with a fluorescent-labeled antibody to HLA-A2; endogenous in cells; host or cells: T2 cells (TAP-deficient)

[4] = IVS with BKVp44, healthy HLA-A2 donors
[5] = healthy HLA-A2 volunteers, summary of Table IV
[6] = IVS with JCVp100, healthy HLA-A2 donors
[7] = kidney transplant patient KTx#02 PBMC, two weeks with peptide and IL-2, percentage of CD8+ lymphocytes, FIG. 12

AITEVECFL (Polyomavirus hominis 1) [BK44]
BOTH (tetBKVp44 and tetJCVp36) ([1]; IVS with BKVp44, double tetramer labeling): 1.79 and 0.02 and 5.7 and 0 (8×) and 0.17 and 13.2 and 2.63 and 3.38 and 0.1 and 6.1
% tetBKVp44 [1, 4]: 1.89% and 0% (5×) and 6.2% and 0.33% and 0.13% and 14.7% and 3.14% and 3.78% and 0.1% and 0.07% and 6.7% and 0.01% and 0.63%
% tetJCVp36 [1, 4]: 1.72% and 0.01% and 6.6% and 0% (4×) and 0.7% and 0.08% and 0.04% and 15% and 3.07% and 3.65% and 0.1% and 0.07% and 6.2% and 0.05%
individuals with cells positively stained by the BK44 tetramer reagent after in vitro stimulation [1, 5]: 8 of 17
individuals with cells positively stained by the JC36 tetramer reagent after in vitro stimulation [1, 5]: 8 of 17
IFN-γ secretion by CD8+ cells on peptide stimulation [2]: induced the secretion of IFN-γ by CD8^+ cells
recognition by transgenic murine CTL expanded with BK44 [3]: recognized

ILKEPVNGV [control HIV peptide]
cells producing IFN-γ in response to peptide [2]: 1.94% and 3.2%
proportion of cells responding with IFN-γ production [2]: 0.35%

ILMWEAVTL [JC100]
BOTH (tetBKVp108 and tetJCVp100) ([1]; IVS with JCVp100, double tetramer labeling): 0 (6×) and 0.26 and 5.17 and 0.04 and 4.3 and 0.9
% tetBKVp108 [1, 6]: 0.04% (2×) and 0.05% and 0% (9×) and 0.16% and 0.06% and 0.48% and 4.59% and 0.13% and 5.1% and 0.03% and 0.8%
% tetJCVp100 [1, 6]: 0.02% and 0% (11×) and 0.28% and 0.59% and 3.5% and 0.09% and 1.36% and 5.1% and 0.08% and 1.05%
individuals positive for staining with the BK108 tetramer reagent after in vitro stimulation [1, 5]: 5 of 20
tetramer reagent binding cells that bound both the BKV and JVC tetramer reagents ([1]; kidney transplant patient KTx#02 PBMC after in vitro stimulation, FIG. 13): 63%
cells binding the BKV tetramer reagent after in vitro stimulation [1, 7]: 4.4%
cells binding the JVC tetramer reagent after in vitro stimulation [1, 7]: 3.7%
cells producing IFN-γ in response to peptide [2]: 17.29% and 22.2%
recognition by transgenic murine CTL expanded with BK108 [3]: recognized

LLIKGGVEV (Polyomavirus hominis 1) [BK27b]
HLA-A2 binding (increase in relative fluorescence intensity on T2 cells) (HLA-A*02): highest binding function

LLMWEAVTV [BK108]
result of cytotoxicity and ICC assays [3]: positive results

NLLMWEAVTV [BK107]
result of cytotoxicity and ICC assays [3]: positive results

SITEVECFL [JC36]
recognition by transgenic murine CTL expanded with BK44 [3]: recognized

Source: patent US7468186B2, “Polyomavirus cellular epitopes and uses therefor” (priority 2005, dated 2008)
